Measurements reported in ChEMBL document CHEMBL4387705, “Synthesis of new arylsulfonylspiroimidazolidine-2',4'-diones and study of their effect on stimulation of insulin release from MIN6 cell line, inhibition of human aldose reductase, sorbitol accumulations in various tissues and oxidative stress” (Eur J Med Chem, 2019).
Calls of active or inactive are those of the source. No cut-off for these calls is given here.

Columns and labels:
[1] = system: CC(C)c1ccc(S(=O)(=O)N2C(=O)NC(=O)C23CCCc2ccccc23)cc1; assay: Uncompetitive Inhibition of ALR2 (unknown origin) assessed as substrate Km using varying level of D,L-glyceraldehyde as substrate at 10 uM in presence of NADPH by Lineweaver-Burk plot analysis (reference value: 0.585 mM); conditions: Homo sapiens
MIN6 [2] = assay: Cytotoxicity against mouse MIN6 cells assessed as reduction in cell viability up to 200 uM incubated for 24 hrs by MTT assay; type: cell-based; conditions: min6, 24 h
[3] = Cytotoxicity against mouse MIN6 cells assessed as cell viability at 400 uM incubated for 24 hrs by MTT assay; type: cell-based; conditions: read-out: Activity
MIN6 [4] = assay: Antidiabetic activity in mouse MIN6 cells after 35 passages assessed as increase in insulin secretion at 100 uM in presence of 25 mM glucose by ELISA relative to control; type: functional
MIN6 [5] = assay: Antidiabetic activity in mouse MIN6 cells after 83 passages assessed as increase in insulin secretion at 100 uM in presence of 25 mM glucose by ELISA relative to control; type: functional
MIN6 [6] = assay: Antidiabetic activity in mouse MIN6 cells after 35 passages assessed as increase in insulin secretion incubated for 48 hrs presence of 1 mM glucose by ELISA; type: functional, cell-based
MIN6 [7] = assay: Antidiabetic activity in mouse MIN6 cells after 35 passages assessed as increase in insulin secretion incubated for 48 hrs presence of 25 mM glucose by ELISA; type: functional, cell-based
MIN6 [8] = assay: Antidiabetic activity in mouse MIN6 cells after 83 passages assessed as increase in insulin secretion incubated for 48 hrs presence of 1 mM glucose by ELISA; type: functional, cell-based
MIN6 [9] = assay: Antidiabetic activity in mouse MIN6 cells after 83 passages assessed as increase in insulin secretion incubated for 48 hrs presence of 25 mM glucose by ELISA; type: functional, cell-based
[10] = molecular target: T1, Aldo-keto reductase family 1 member B1 (Homo sapiens, UniProt P15121); assay: Inhibition of human recombinant ALR2 expressed in Escherichia coli using DL-glyceraldehyde as substrate and NADPH preincubated for 5 mins followed by substrate addition and measured after 30 mins at 2 mins interval by spectrophotometry relative to control
[11] = molecular target: Aldo-keto reductase family 1 member A1 (Rattus norvegicus, UniProt P51635); assay: Inhibition of rat kidney ALR1 using DL-glyceraldehyde as substrate and NADPH preincubated for 5 mins followed by substrate addition and measured for 30 mins at 2 mins interval by spectrophotometry relative to control
Chain of Aldo-keto reductase family 1 member A1 (P51635 whole entry, looked up): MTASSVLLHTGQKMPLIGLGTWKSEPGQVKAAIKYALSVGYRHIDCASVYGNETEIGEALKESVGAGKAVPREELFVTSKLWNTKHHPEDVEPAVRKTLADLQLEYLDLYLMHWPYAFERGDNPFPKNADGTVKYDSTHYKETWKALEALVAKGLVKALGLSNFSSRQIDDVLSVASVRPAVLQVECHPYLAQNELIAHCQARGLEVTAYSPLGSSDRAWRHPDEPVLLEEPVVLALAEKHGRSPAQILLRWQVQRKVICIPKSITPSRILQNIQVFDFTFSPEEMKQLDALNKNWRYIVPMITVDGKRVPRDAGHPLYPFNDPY

[12] = Selectivity ratio of IC50 for rat kidney ALR1 IC50 to IC50 for human recombinant ALR2
[13] = molecular target: Aldo-keto reductase family 1 member B1 (Rattus norvegicus) (UniProt P07943); assay: (§1) Inhibition of ALR2 in rat erythrocytes assessed as reduction in sorbitol accumulation incubated for 3 hrs in presence of 28 mM glucose by gas chromatographic analysis relative to control; type: cell-based
[14] = molecular target: T2, Aldo-keto reductase family 1 member B1 (Rattus norvegicus, UniProt P07943); assay: as §1; type: cell-based
[15] = molecular target: Aldo-keto reductase family 1 member B1 (Rattus norvegicus) (UniProt P07943); assay: (§2) Inhibition of ALR2 in rat sciatic nerve assessed as reduction in sorbitol accumulation incubated for 3 hrs in presence of 28 mM glucose by gas chromatographic analysis
[16] = molecular target: T2, Aldo-keto reductase family 1 member B1; assay: as §2
[17] = molecular target: Aldo-keto reductase family 1 member B1 (Rattus norvegicus) (UniProt P07943); assay: (§3) Inhibition of ALR2 in rat lens assessed as reduction in sorbitol accumulation incubated for 3 hrs in presence of 28 mM glucose by gas chromatographic analysis relative to control
[18] = molecular target: T2, Aldo-keto reductase family 1 member B1; assay: as §3
[19] = Antioxidant activity assessed as DPPH radical scavenging activity at 10 uM incubated for 30 mins under dark condition by spectrophotometry; type: functional
[20] = Antioxidant activity assessed as DPPH radical scavenging activity at 50 uM incubated for 30 mins under dark condition by spectrophotometry; type: functional
[21] = Antioxidant activity assessed as DPPH radical scavenging activity at 100 uM incubated for 30 mins under dark condition by spectrophotometry; type: functional
[22] = Cytotoxicity against HEK293 cells assessed as reduction in cell viability at 25 uM incubated for 48 hrs by MTT assay relative to control; type: cell-based; conditions: human, read-out: INH
[23] = Cytotoxicity against HEK293 cells assessed as reduction in cell viability at 50 uM incubated for 48 hrs by MTT assay relative to control; type: cell-based; conditions: human, read-out: INH
[24] = Cytotoxicity against HEK293 cells assessed as reduction in cell viability at 100 uM incubated for 48 hrs by MTT assay relative to control; type: cell-based; conditions: human, read-out: INH
[25] = Cytotoxicity against HEK293 cells assessed as reduction in cell viability at 200 uM incubated for 48 hrs by MTT assay relative to control; type: cell-based; conditions: human, read-out: INH
Mus musculus = assay: Antihyperglycemic activity in alloxanized BALB/c mouse assessed as reduction in blood glucose level at 150 mg/kg, po measured after 8 hrs relative to control; type: functional
MIN6 [26] = assay: Effect on cell morphology in mouse MIN6 cells assessed as cell viability up to 400 uM incubated for 24 hrs; type: cell-based; conditions: min6, 24 h
[27] = molecular target: T1, Aldo-keto reductase family 1 member B1; assay: Uncompetitive Inhibition of ALR2 (unknown origin) using varying level of D,L-glyceraldehyde as substrate at 10 uM in presence of NADPH by Lineweaver-Burk plot analysis
[28] = molecular target: T1, Aldo-keto reductase family 1 member B1; assay: Uncompetitive Inhibition of ALR2 (unknown origin) using fixed level of D,L-glyceraldehyde as substrate at 10 uM in presence of varying level of NADPH by Lineweaver-Burk plot analysis
[29] = molecular target: T1, Aldo-keto reductase family 1 member B1; assay: Non-competitive Inhibition of ALR2 (unknown origin) using fixed level of D,L-glyceraldehyde as substrate at 20 uM in presence of varying level of NADPH by Lineweaver-Burk plot analysis
[30] = molecular target: T1, Aldo-keto reductase family 1 member B1; assay: Non-competitive Inhibition of ALR2 (unknown origin) using varying level of D,L-glyceraldehyde as substrate at 20 uM in presence of NADPH by Lineweaver-Burk plot analysis

| Molecule | IC50 [10] [µM] | IC50 [11] [µM] | Ratio IC50 [12] | inhibition [13] | IC50 [14] [µM] | inhibition [15] | IC50 [16] [µM] | inhibition [17] | IC50 [18] [µM] | Activity (MIN6 [2]) | viability at 24 h, 400 µM [3] [%] | Activity (MIN6 [4]) [%] | Activity (MIN6 [5]) [%] | inhibition [19] [%] | inhibition [20] [%] | inhibition [21] [%] | cytotoxicity at 48 h, 25 µM [22] [%] | cytotoxicity at 48 h, 50 µM [23] [%] | cytotoxicity at 48 h, 100 µM [24] [%] | cytotoxicity at 48 h, 200 µM [25] [%] | further results |
| --- | --- | --- | --- | --- | --- | --- | --- | --- | --- | --- | --- | --- | --- | --- | --- | --- | --- | --- | --- | --- | --- |
| Aldo-keto reductase family 1 member B1 (Homo sapiens) (from UniProt P15121) | – | – | – | – | – | – | – | – | – | – | – | – | – | – | – | – | – | – | – | – | Km [1]: 537 µM |
| CCCCNC(=O)NS(=O)(=O)c1ccc(C)cc1 [TOLBUTAMIDE] | – | – | – | – | – | – | – | – | – | – | – | 340 | 110 | – | – | – | – | – | – | – | Activity (MIN6 [6]): Active; Activity (MIN6 [7]): Active; Activity (MIN6 [8]): Active; Activity (MIN6 [9]): Active; inhibition in vivo at 150 mg/kg (Mus musculus): 47.2% |
| CC(C)c1ccc(S(=O)(=O)N2C(=O)NC3(CCCc4ccccc43)C2=O)cc1 (stereo not given) | 8.02 | 32.5 | 4.05 | Dose-dependent effect | 10.3 | Dose-dependent effect | 13 | Dose-dependent effect | 10.7 | Non-Toxic | 81 | 295 | 84 | 82.3 | 84.2 | 92.3 | 10.1 | 12.5 | 12.6 | 18.5 | Activity (MIN6 [6]): inactive; Activity (MIN6 [7]): inactive; Activity (MIN6 [8]): inactive; Activity (MIN6 [26]): Non-Toxic |

Further lines, with some results ahead:

| IC50 [10] [µM] | IC50 [11] [µM] | Ratio IC50 [12] | inhibition [13] | IC50 [14] [µM] | inhibition [15] | IC50 [16] [µM] | inhibition [17] | IC50 [18] [µM] | Molecule | Activity (MIN6 [2]) | viability at 24 h, 400 µM [3] [%] | Activity (MIN6 [4]) [%] | Activity (MIN6 [5]) [%] | inhibition [19] [%] | inhibition [20] [%] | inhibition [21] [%] | cytotoxicity at 48 h, 25 µM [22] [%] | cytotoxicity at 48 h, 50 µM [23] [%] | cytotoxicity at 48 h, 100 µM [24] [%] | cytotoxicity at 48 h, 200 µM [25] [%] | further results |
| --- | --- | --- | --- | --- | --- | --- | --- | --- | --- | --- | --- | --- | --- | --- | --- | --- | --- | --- | --- | --- | --- |
| 0.64 | 32.2 | 53.7 | Dose-dependent effect | 0.6 | Dose-dependent effect | 0.67 | Dose-dependent effect | 0.65 | CC(=O)c1ccc(S(=O)(=O)N2C(=O)NC(=O)C23CCCc2ccccc23)cc1 (stereo not given) | Non-Toxic | 81 | 370 | 228 | 25.2 | 39.7 | 75.5 | 16.3 | 23.2 | 26.6 | 34.6 | Activity (MIN6 [6]): Active; Activity (MIN6 [7]): Active; Activity (MIN6 [8]): Active; Activity (MIN6 [9]): Active; inhibition in vivo at 150 mg/kg (Mus musculus): 52.2%; Activity (MIN6 [26]): Non-Toxic |
| 0.56 | 68.2 | 73.7 | Dose-dependent effect | 0.85 | Dose-dependent effect | 0.72 | Dose-dependent effect | 0.83 | CC(C)c1ccc(S(=O)(=O)N2C(=O)NC(=O)C23CCCc2ccccc23)cc1 (stereo not given) | Non-Toxic | 81 | 230 | 192 | 72.7 | 75.2 | 85.3 | 14.2 | 16.2 | 16.1 | 22.3 | inhibition [27]: Active; inhibition [28]: Active; inhibition [29]: Active; inhibition in vivo at 150 mg/kg (Mus musculus): 50.3%; Activity (MIN6 [26]): Non-Toxic; inhibition [30]: Active |
| 5.66 | 10.6 | 1.88 | Dose-dependent effect | 7.15 | Dose-dependent effect | 6.37 | Dose-dependent effect | 7.44 | COc1ccc(S(=O)(=O)N2C(=O)NC(=O)C23CCCc2ccccc23)cc1 (stereo not given) | Non-Toxic | 81 | 170 | 122 | 41.4 | 53.3 | 66.8 | 14 | 21.1 | 25.2 | 27.5 | Activity (MIN6 [26]): Non-Toxic |
